Data taken from ChEMBL document CHEMBL4602695, “Discovery and SARs of 5-Chloro-N4-phenyl-N2-(pyridin-2-yl)pyrimidine-2,4-diamine Derivatives as Oral Available and Dual CDK 6 and 9 Inhibitors with Potent Antitumor Activity” (J Med Chem, 2020).

How the values were obtained:
MDA-MB-231 [1] = assay: Antiproliferative activity against human MDA-MB-231 cells assessed as inhibition of cell proliferation measured after 48 hrs by CCK8 assay; type: functional, cell-based; details: MDA-MB-231, 48 h
Jurkat = assay: Antiproliferative activity against human Jurkat cells assessed as inhibition of cell proliferation measured after 48 hrs by CCK8 assay; type: functional, cell-based
MCF7 = assay: Antiproliferative activity against human MCF7 cells assessed as inhibition of cell proliferation measured after 48 hrs by CCK8 assay; type: functional, cell-based; details: MCF7, 48 h
[2] = Cytotoxicity against human L02 cells assessed as inhibition of cell proliferation measured after 48 hrs by CCK8 assay; type: cell-based
MDA-MB-231 [3] = assay: Cell cycle arrest in human MDA-MB-231 cells assessed as accumulation at G0/G1 phase at 20 uM measured after 48 hrs by propidium iodide staining based flow cytometry (reference value: 57.65%); type: functional
MDA-MB-231 [4] = assay: Cell cycle arrest in human MDA-MB-231 cells assessed as accumulation at S phase at 20 uM measured after 48 hrs by propidium iodide staining based flow cytometry (reference value: 26.45%); type: functional
MDA-MB-231 [5] = assay: Cell cycle arrest in human MDA-MB-231 cells assessed as accumulation at G2/M phase at 20 uM measured after 48 hrs by propidium iodide staining based flow cytometry (reference value: 15.9%); type: functional
MDA-MB-231 [6] = assay: Induction of apoptosis in human MDA-MB-231 cells assessed as viable cells at 20 uM measured after 48 hrs by Annexin V-FITC/propidium iodide staining based flow cytometry (95.8%); type: functional; details: MDA-MB-231, 48 h, read-out: Activity
MDA-MB-231 [7] = assay: Induction of apoptosis in human MDA-MB-231 cells assessed as early apoptotic cells at 20 uM measured after 48 hrs by Annexin V-FITC/propidium iodide staining based flow cytometry (0.877%); type: functional
MDA-MB-231 [8] = assay: Induction of apoptosis in human MDA-MB-231 cells assessed as late apoptotic cells at 20 uM measured after 48 hrs by Annexin V-FITC/propidium iodide staining based flow cytometry (2.78%); type: functional
MDA-MB-231 [9] = assay: Induction of apoptosis in human MDA-MB-231 cells assessed as necrotic cells at 20 uM measured after 48 hrs by Annexin V-FITC/propidium iodide staining based flow cytometry (0.498%); type: functional

## CC(=O)c1c(C)c2cnc(Nc3ccc(N4CCNCC4)cn3)nc2n(C2CCCC2)c1=O [PALBOCICLIB]
MDA-MB-231 [1]
  GI50: > 100 µM
Jurkat
  GI50: > 100 µM
MCF7
  GI50: > 100 µM
[2]
  GI50 at 48 h: > 100 µM
MDA-MB-231 [3]
  Activity: 91.91%
MDA-MB-231 [4]
  Activity: 4.98%
MDA-MB-231 [5]
  Activity: 3.12%
MDA-MB-231 [6]
  viability at 20 µM: 89%
MDA-MB-231 [7]
  Activity: 3.43%
MDA-MB-231 [8]
  Activity: 5.26%
MDA-MB-231 [9]
  Activity: 2.32%
